# From US10966995B2, “Use of secoisolariciresinol diglucosides (SDGS) and related compounds for protection against radiation and chemical damage” (THE TRUSTEES OF THE UNIVERSITY OF PENNSYLVANIA, priority 2014, dated 2021)
# Key:
# [1] = test system: murine primary lung endothelial cells; test: Morphological detection of apoptotic cells, endothelial cells; assay type: cell-based, mouse; details: SDG 50 μM pre-treatment; irradiated; 24 h; IR alone 15.1%
# Experimental: (§1) Fibroblasts and endothelial cells were isolated from C57/bl6 mouse. For fibroblast isolation, mouse lungs were harvested, minced, and incubated with dispase (2 mg/ml) for 45 minutes. Pieces were plated out and fibroblasts were cultured as described previously and used between passages 3 and 10. Pulmonary microvascular endothelial cells (PMVEC) were isolated from murine lungs as described previously. Briefly, freshly harvested mouse lungs were treated with collagenase followed by isolation of cells by adherence to magnetic beads coated with mAb to platelet endothelial cell adhesion molecule (PECAM). […]
# (§2) Apoptotic cells are morphologically characterized by condensation of nucleus and cytoplasm, membrane blebbing, cell shrinkage, and breakdown of nuclear DNA, first in large segments and subsequently in nucleosomal fragments and finally formation of well-enclosed apoptotic bodies. Percentage of cells undergoing apoptosis was determined microscopically from the slides used for micronuclei detection (cytogenetic damage). At least, 500 cells were counted for each experiment (experiment done twice) and percent apoptotic cells were determined as follows: % Cell Death=Na/Nt×100, where Na is the number of cells with apoptotic bodies and Nt is the total number of cells analyzed. Gene Expression Analysis by Quantitative Real Time PCR (qPCR)
# [2] = Tolerability of SDG given twice daily for 7 days; assay type: in vivo; details: 100 mg/Kg given twice daily for 7 days
# [3] = test system: murine primary lung cells (epithelial cells, endothelial cells and fibroblasts); test: Clonogenic survival of irradiated primary lung cells; assay type: cell-based, mouse
# Experimental: (§3) Fibroblasts and endothelial cells were isolated from C57/bl6 mouse. For fibroblast isolation, mouse lungs were harvested, minced, and incubated with dispase (2 mg/ml) for 45 minutes. Pieces were plated out and fibroblasts were cultured as described previously and used between passages 3 and 10. Pulmonary microvascular endothelial cells (PMVEC) were isolated from murine lungs as described previously. Briefly, freshly harvested mouse lungs were treated with collagenase followed by isolation of cells by adherence to magnetic beads coated with mAb to platelet endothelial cell adhesion molecule (PECAM). Epithelial cells (C10) cells were originally derived from a normal BALB/c mouse lung explant and are non-tumorigenic, contact-inhibited, and have alveolar type 2 cell features at early passage.
# Exponentially growing cells were plated as single cells and incubated overnight. Cells were treated with various doses of the lignan SDG (10-50 μM) 6 h prior to irradiation (2, 4, 6 and 8 Gy). Lignan dose was selected based on animal studies to be within the physiological levels reached in the blood circulation when 10% Flaxseed is ingested. Cells were irradiated with a Mark 1 cesium (Cs-137) irradiator (J. L. Shepherd, San Fernando, Calif.) at a dose rate of 1.7 Gy/min Colonies were stained and counted 10 to 15 days after irradiation and surviving fraction was calculated.
# [4] = SDG pharmacokinetic study after oral gavage (plasma and lung); assay type: in vivo, mouse
# Experimental: (§4) After selecting the 100 mg/kg dose as a dose that induces significant AOE expression while allowing for SDG to be detected in circulation, a pharmacokinetic study was performed to determine bioavailability and biological effects in target tissues (i.e., lung). Blood samples as well as tissues (lung, brain, liver, kidneys, spleen) were collected at 15 min, 30 min, and 1, 2, 4, 6, 8, 12 hours. SDG levels were determined as above in plasma and lung (FIGS. 41A-C). A single dose of 100 mg SDG/Kg was well absorbed and intact SDG was detectable in the circulation up to 6 hours post administration (FIG. 41A) and in flushed, blood-free lung tissues for 4 hours (FIG. 41B). […] The observed gene expression increase correlated with an increase in protein levels determined by western blotting (not shown). […] The use of SDG in human therapy is thus greatly facilitated and the toxicity risk is unlikely. Therefore a dose of 50-100 mg/Kg (1 or 2 mg SDG per day) is sufficient to induce the anticipated protective effects in target tissues and can be used for further study.
# [5] = test system: AOE gene expression (HO-1, NQO1, GST); test: AOE gene expression in lung in the pharmacokinetic study; assay type: in vivo, mouse; details: 100 mg SDG/Kg oral; p<0.05
# Experimental: as §4
# [6] = γ-Radiation-induced chlorination of 2-AP
# Description: (§5) 2-AP in PBS was exposed to hypochlorite and fluorescence spectra recorded between 360-390 nm with the emission maximum at 374 nm. The % change in 2-AP calculated.
# To determine whether radiation induces nucleobase chlorination, we used the same system as above, namely 2-AP fluorescence (FIG. 19A).
# [7] = Hypochlorite-induced chlorination of 2-aminopurine (2-AP)
# Description: as §5
# [8] = test system: Murine primary lung cells (epithelial cells); test: qPCR of Bax and Bcl-2 gene expression after irradiation; assay type: cell-based, mouse; details: for Bcl-2 mRNA levels, increase: SDG pre-treated cells
# Experimental: qPCR was performed using TaqMan® Probe-Based Gene Expression Assays supplied by Applied Biosystems, Life Technologies (Carlsbad, Calif.). To evaluate the effect of SDG treatment on the mRNA expression of apoptotic genes, individual TaqMan® gene expression assays were performed for Bax (Mm00432051_m1) and Bcl-2 (Mm00477631_m1).
# Briefly, cells were pre-treated with SDG (50 μM, 6 hrs) and irradiated (2 Gy). Total RNA was isolated from using RNeasy Plus Mini Kit (Qiagen, Valencia, Calif.) and quantified using a NanoDrop 2000 (ThermoFisher Scientific, Waltham, Mass.). Reverse transcription of RNA to cDNA was then performed on a Veriti® Thermal Cycler using the High Capacity RNA to cDNA kit supplied by Applied Biosystems, Life Technologies (Carlsbad, Calif.). qPCR was performed using 25 ng of cDNA per reaction well on a StepOnePlus™ Real-Time PCR System (Applied Biosystems, Life Technologies, Carlsbad, Calif.). Gene expression data was normalized to 18S ribosomal RNA and calibrated to untreated control samples according to the ΔΔCT method.
# [9] = test system: murine primary lung cells (epithelial cells, endothelial cells and WT fibroblasts); test: γ-H2AX flow cytometry (FACS) in irradiated primary lung cells; assay type: cell-based, mouse; details: SDG 50 μM 6 h pre-treatment; 2 Gy; all cell types
# Experimental: as §3
# For FACS analysis, cells were trypsinized and washed with PBS. Cells were then fixed (Fix/Perm buffer, eBioscience), for 45 minutes and washed thereafter using permeabilization wash buffer (BioLegend, USA). […] Cells were washed again with wash buffer and analyzed. The CyAn ADP (Advanced Digital Processing) flow cytometer (Dako, Denmark) Coulter, Fullerton, Calif.) was used to measure γ-H2AX and positive cells were quantified using Summit Software (Dako, Denmark).
# [10] = test system: murine primary lung fibroblasts; test: Morphological detection of apoptotic cells, fibroblasts; assay type: cell-based, mouse; details: SDG pre-treatment; irradiated
# Experimental: as §1, §2
# [11] = 100 mg SDG/Kg oral, 30 minutes post-administration
smiles,measurement,setting,value
"COc1cc(C[C@@H](CO[C@@H]2O[C@H](CO)[C@@H](O)[C@H](O)[C@H]2O)[C@H](CO[C@@H]2O[C@H](CO)[C@@H](O)[C@H](O)[C@H]2O)Cc2ccc(O)c(OC)c2)ccc1O [SDG, secoisolariciresinol diglucoside]",Apoptotic cells,[1],10.71%±1.45
same,Intolerance / toxicity,[2],neither intolerance nor toxicity
same,"Colony forming ability, compound alone","[3]; SDG 10-50 μM alone, all three cell types, vs untreated control",did not elicit any adverse effect
same,Surviving fraction,"[3]; SDG prior to irradiation, epithelial and endothelial cells (FIGS. 7A, 7B)",enhanced significantly
same,SDG concentration giving maximum protection against radiation-induced loss in clonogenicity,"[3]; fibroblasts, 6 h pre-treatment",50 µM
same,"Time SDG detectable in flushed, blood-free lung tissues",[4]; 100 mg SDG/Kg oral,4 h
same,Time intact SDG detectable in the circulation post administration,[4]; 100 mg SDG/Kg oral,up to 6 hours
same,Lung tissue concentration of SDG,[4]; [11],12.6 µM
same,Plasma concentration of SDG,[4]; [11],800 nM
same,Absorption,"[4]; single dose of 100 mg SDG/Kg, oral gavage",well absorbed
same,"AOE gene expression levels (HO-1, NQO1, GST) over baseline",[5],significantly elevated
same,γ-radiation-induced decrease in 2-AP fluorescence intensity,[6],prevented
same,"Hypochlorite-induced decrease of 2-AP fluorescence, pre-treatment","[7]; 10 μM hypochlorite, SDG pre-treatment 60 seconds",prevented
same,"Hypochlorite-induced 2-AP modification, post-treatment",[7]; SDG added +15 to +300 seconds after ClO^−,significant recovery
same,IR-induced increase in pro-apoptotic Bax mRNA levels,"[8]; SDG 50 μM pre-treatment, 2 Gy, 24 and 48 hours post-IR",significantly (p<0.05) inhibited
same,"Bcl-2 mRNA levels, increase",[8]; 24 hours post-IR,6.6 fold
same,"Bcl-2 mRNA levels, increase",[8]; 48 hours post-IR,3.5 fold
same,Number of γ-H2AX positive cells (flow cytometry),[9],significantly abrogated
same,Extent of apoptosis,[10],significantly reduced
